Data reported in the NIST ThermoML archive (doi:10.1016/j.jct.2012.06.031).

Assay: refractive index (Na D-line) (dimensionless); xn = mol fraction of the nth substance listed
Settings: 101 kPa, Liquid, Standard Abbe refractometry

CC(O)CO (stereo not given) [1,2-propanediol] + c1ccncc1
refractive index
Settings	x2 = 0	x2 = 0.1	x2 = 0.2	x2 = 0.2999	x2 = 0.4	x2 = 0.4999	x2 = 0.6	x2 = 0.7001	x2 = 0.8	x2 = 0.9
288.15 K	1.43411	1.44356	1.4522	1.46041	1.46838	1.47609	1.48375	1.49129	1.49866	1.50554
293.15 K	1.43247	1.4418	1.4503	1.4584	1.46629	1.47383	1.4814	1.48884	1.49609	1.50288
298.15 K	1.43081	1.43993	1.44839	1.4564	1.46417	1.47163	1.47909	1.4864	1.49345	1.49993
303.15 K	1.42915	1.43816	1.4465	1.45438	1.46204	1.4694	1.47676	1.48397	1.49093	1.49727
308.15 K	1.42751	1.43643	1.44465	1.45244	1.46	1.46728	1.47448	1.48152	1.48841	1.49461
313.15 K	1.42581	1.43463	1.44276	1.45051	1.45802	1.46517	1.47224	1.4791	1.48589	1.49195
318.15 K	1.42407	1.43286	1.44082	1.44855	1.45597	1.46296	1.46991	1.47665	1.48321	1.4894
323.15 K	1.4223	1.43109	1.439	1.44676	1.45397	1.46088	1.46777	1.47441	1.48086	1.4869

OCCCO [propan-1,3-diol] + c1ccncc1
refractive index
Settings	x2 = 0	x2 = 0.0999	x2 = 0.2	x2 = 0.3	x2 = 0.4001	x2 = 0.5	x2 = 0.5999	x2 = 0.7	x2 = 0.7998	x2 = 0.8998
288.15 K	1.44089	1.44922	1.45763	1.46592	1.47372	1.4809	1.48773	1.49409	1.49986	1.50582
293.15 K	1.43947	1.44774	1.45599	1.46414	1.47185	1.47889	1.48556	1.4918	1.49743	1.50319
298.15 K	1.43805	1.44619	1.45436	1.46235	1.46995	1.47685	1.4834	1.4895	1.495	1.50057
303.15 K	1.43665	1.44473	1.45279	1.46061	1.46805	1.47482	1.48124	1.4872	1.49257	1.49795
308.15 K	1.43526	1.44328	1.45118	1.45892	1.46621	1.4728	1.47907	1.48491	1.49016	1.49536
313.15 K	1.43387	1.44171	1.44953	1.45718	1.46432	1.47092	1.47707	1.48267	1.48778	1.49276
318.15 K	1.43244	1.4402	1.44788	1.45542	1.4624	1.4689	1.47491	1.48045	1.4855	1.49023
323.15 K	1.43099	1.43869	1.44628	1.45378	1.46051	1.467	1.47312	1.47837	1.4833	1.48788

c1ccncc1 [pyridine] + CCCO
refractive index
Settings	x1 = 0.1001	x1 = 0.1998	x1 = 0.2999	x1 = 0.3998	x1 = 0.5	x1 = 0.5999	x1 = 0.7	x1 = 0.8	x1 = 0.8998	x1 = 1
288.15 K	1.40196	1.41533	1.42836	1.44094	1.45341	1.46554	1.47748	1.48907	1.50064	1.51184
293.15 K	1.39979	1.41307	1.42603	1.43854	1.45095	1.46301	1.47487	1.4864	1.49788	1.509
298.15 K	1.39757	1.41079	1.42367	1.43616	1.44848	1.46047	1.47228	1.48375	1.49514	1.50616
303.15 K	1.39535	1.40849	1.42136	1.43375	1.44601	1.45795	1.46968	1.48107	1.49238	1.50331
308.15 K	1.3931	1.40618	1.41898	1.43132	1.44353	1.45541	1.46708	1.47839	1.48965	1.50048
313.15 K	1.39068	1.40381	1.41659	1.42891	1.44102	1.45287	1.46445	1.47573	1.48683	1.49769
318.15 K	1.3884	1.40151	1.41425	1.42648	1.43857	1.45038	1.46187	1.47309	1.48411	1.49493
323.15 K	1.38622	1.39909	1.41179	1.42409	1.43616	1.44788	1.45942	1.47055	1.48155	1.49219

c1ccncc1 [pyridine] + OCC(O)CO
refractive index
Settings	x1 = 0.1	x1 = 0.2001	x1 = 0.3001	x1 = 0.4	x1 = 0.4998	x1 = 0.6001	x1 = 0.6999	x1 = 0.8001	x1 = 0.8999	x1 = 1
288.15 K	1.48103	1.48616	1.49108	1.49581	1.49973	1.50321	1.50634	1.50874	1.51057	1.51184
293.15 K	1.47967	1.48469	1.48946	1.49406	1.49786	1.50115	1.50412	1.50638	1.50796	1.509
298.15 K	1.47829	1.48318	1.48784	1.49227	1.49597	1.49954	1.50189	1.504	1.50535	1.50616
303.15 K	1.4769	1.48167	1.48619	1.49055	1.49411	1.49711	1.49967	1.50162	1.50275	1.50331
308.15 K	1.47553	1.48015	1.48454	1.48882	1.49222	1.49515	1.49743	1.49927	1.50017	1.50048
313.15 K	1.47412	1.47863	1.48286	1.48703	1.49024	1.49307	1.49542	1.49699	1.49777	1.49769
318.15 K	1.47272	1.47699	1.4812	1.48522	1.48844	1.49119	1.49319	1.4947	1.49512	1.49493
323.15 K	1.47138	1.47548	1.47953	1.48348	1.48658	1.48919	1.49101	1.4924	1.4926	1.49219
